Activity data for 14 molecules are collected here from ChEMBL document CHEMBL3217421, “Truncated militarinone fragments identified by total chemical synthesis induce neurite outgrowth” (Medchemcomm, 2013).

The source made the active and inactive calls. The rule behind the calls is not given here.

What all share (assay type): functional, cell-based
Assay [1] deals with PC-12. Put plainly: Neuritogenic activity in rat PC12 cells assessed as induction of neurite outgrowth at 40 uM after 3 days using Giemsa staining by microscopic analysis.
Assay [2] has as its system PC-12. The assay is described as follows: Neuritogenic activity in rat PC12 cells assessed as induction of neurite outgrowth at 20 uM after 3 days using Giemsa staining by microscopic analysis.
Assay [3] deals with PC-12. Put plainly: Neuritogenic activity in rat PC12 cells assessed as induction of neurite outgrowth at 500 nM after 3 days using Giemsa staining by microscopic analysis.
Assay [4] relates to PC-12. Put plainly: Neuritogenic activity in rat PC12 cells assessed as induction of neurite outgrowth at 1 uM after 3 days using Giemsa staining by microscopic analysis.
Assay [5] deals with PC-12. Put plainly: Neuritogenic activity in rat PC12 cells assessed as induction of neurite outgrowth at 20 uM after 3 days using Giemsa staining by microscopic analysis in presence of ERK1/2 inhibitor PD98059.
The subject of assay [6] is PC-12. The assay is described as follows: Neuritogenic activity in rat PC12 cells assessed as induction of neurite outgrowth at 2 uM after 3 days using Giemsa staining by microscopic analysis.

As to `CCOC(=O)c1c(OC)c(-c2ccncc2)c[nH]c1=O`, in assay [1], the outcome was inactive.

As to `CCOC(=O)c1c(OC)c(-c2ccc(NC(=O)OC(C)(C)C)cc2)c[nH]c1=O`, the result in assay [1] was inactive.

For the molecule `CCOC(=O)c1c(OC)c(-c2ccc(OC)cc2)cn(C)c1=O`, the outcome in assay [2] was inactive.

As to `CCOC(=O)c1c(OC)c(-c2ccc(N)cc2)c[nH]c1=O`, the result in assay [1] was inactive.

On to `CCOC(=O)c1c(OC)c(-c2ccc(OC)cc2)c[nH]c1=O`, for which, in assay [2], the result was inactive.

As for `CCOC(=O)c1c(OC)c(-c2ccc(F)cc2)c[nH]c1=O`, the outcome in assay [1] was inactive.

Regarding `CCOC(=O)c1c(OC)c(-c2ccccc2)c[nH]c1=O`, in assay [1], the outcome was inactive.

`COc1cc(-c2cccnc2)ccc1O`: the result in assay [2] was inactive.

For the molecule `CCOC(=O)c1c(OC)c(-c2ccc(O)cc2)c[nH]c1=O`, the outcome in assay [2] was Active.

For `CCOC(=O)c1c(OC)c(-c2ccc(C(C)(C)C)cc2)c[nH]c1=O`, the outcome in assay [1] was inactive.

For `CCOC(=O)c1c(OC)c(-c2ccc(O)cc2)cn(C)c1=O`, in assay [2], the outcome was Active.

Consider `CCOC(=O)c1c(O)c(-c2ccc(O)cc2)c[nH]c1=O`, for which the result in assay [2] was Active.

Consider `CCOC(=O)c1c(OC)c(-c2ccc(O)c(OC)c2)c[nH]c1=O`, for which the outcome in assay [3] and in assay [5] was inactive. For the same molecule, the outcome in assay [2], in assay [4] and in assay [6] was Active.

Take `CCOC(=O)c1c(OC)c(-c2cccnc2)c[nH]c1=O`: the result in assay [1] was inactive.
